The species named for assay [1] is Rattus norvegicus. Put plainly: In vitro inhibition of ADP (1.25 x 10E-6 M)-induced platelet aggregation in rat PRP (wistar). Type of assay: functional.
Assay [2] is filed under the species Homo sapiens. Put plainly: In vitro inhibition of ADP (0.5 x 10E-6 M)-induced platelet aggregation in human PRP.
Assay [3] is filed under the species Homo sapiens. The assay is described as follows: In vitro inhibition of collagen (0.66 ug/mL)-induced platelet aggregation in human PRP. Type of assay: functional.
The species named for assay [4] is Homo sapiens. Put plainly: In vitro inhibition of thrombin (0.1 IU/mL)-induced platelet aggregation in human PRP.

In the case of `CCCCC[C@H](O)/C=C/[C@@H]1[C@H]2C/C(=C/CCCC(=O)O)O[C@H]2C[C@H]1O` [EPOPROSTENOL], the concentration for half-maximal inhibition (IC50) (commonly the midpoint of a concentration-inhibition curve) in assay [1] turned out to be 2.6 nM; in assay [2], 0.66 nM.
Turning to `CCC#CC[C@H](C)[C@H](O)C#CC1[C@H]2C/C(=C/COCC(=O)O)CC2C[C@H]1O` (stereo not given in full), the half-maximal inhibitory concentration (IC50) in assay [3] is 0.2 nM; in assay [1], 3.2 nM; in assay [2], 0.64 nM; in assay [4], 0.13 nM.
For `CC#CCC(C)[C@H](O)/C=C/[C@@H]1[C@H]2C/C(=C/CCCC(=O)O)C[C@H]2C[C@H]1O` (stereo not given in full) [ILOPROST], in that order: 0.39 nM, 11.4 nM, 0.82 nM and 0.39 nM.
